The target in experiment [1] is T1, T7 RNA polymerase (Escherichia phage T7, UniProt P00573). Nature of the experiment: mRNA in-vitro transcription yield with cap analog (T7 IVT, Nanodrop One quantification). It is filed as biochemical. Conditions: mRNA from 20 μL IVT system, 1 μl 100 mM cap analog, 1 μg template, 37° C. 2 h. How it is done: (§1) In-vitro synthesis of mRNA cap analogs modified with vinylphosphonic acid: Firstly, a plasmid was linearized with NotI and digested at […] overnight. A DNA template was extracted. mRNAs were synthesized by in-vitro transcription using the vinylphosphonic acid-modified mRNA cap analogs of Examples 1-7 and compounds 10-13, 16, 17, 25, 31 and 34, and the cap analog of Comparative Example 1 as cap structures, respectively.
(§2) Note: During the experiment, the volume of the materials required for the system was calculated firstly, and then sample loading was performed. Firstly, sterile enzyme-free water was added into the system, and then 10× buffer, NTPs, and the cap analog were sequentially added. The mixture was uniformly mixed and then gently centrifuged, followed by addition of the nuclease inhibitor, the inorganic pyrophosphatase, the T7 RNA polymerase, and the linearized DNA template. The mixture was well mixed, then gently centrifuged, and incubated at 37° C. After 2 h, DNase I (1 U) was added, and the mixture was incubated at 37° C. for another 30 min to remove the DNA template. RNA purification was then performed (usually using the magnetic bead purification method). The purified mRNA was dissolved in sterile enzyme-free water, and then quantitative detection was performed by using Nanodrop One.

Experiment [2] has as its target T1, T7 RNA polymerase. In words: IVT capping rate of mRNA by LC-MS after RNase H cleavage. The experiment is classed as biochemical. Conditions: LC-MS of mRNA transcribed with the cap analog. How it is done:
as §1, §2
Liquid chromatography-mass spectrometry (LC-MS) was used to detect the IVT capping rates of mRNAs with different starting cap analogs. Firstly, a labeled (usually biotin-labeled) DNA probe matched with the starting base of mRNA as the transcript product was required to be designed, and streptavidin-labeled magnetic beads were washed, and then incubated with the synthesized DNA probe, mRNA and 10× RNase H reaction buffer with slowly mixing at room temperature for 30 min. 20 L of RNase H (5 U/μL) was then added, and the mixture was incubated at 37° C. for 3 h, with uniform mixing every half hour. After the incubation was completed, the magnetic beads were cleaned, and then 100 μL of 75% methanol heated to 80° C. was added to the cleaned magnetic beads. The mixture was heated to 80° C. on a heating plate, held for 3 min, and then placed on a magnetic rack. The supernatant was pipetted and dried at room temperature for 45 min to 10 Lby using an evaporation centrifuge. The sample was then resuspended in 50 μL of 100 μM EDTA/1% MeOH for LC-MS analysis to determine the capping of RNA in the transcription reaction. Due to the significant difference in molecular weight between capped and uncapped bases, the capping rates of mRNA transcription initiated with different cap analogs can be determined by using the difference in molecular weight.

The target in experiment [3] is eukaryotic initiation factor (elF4E) (Homo sapiens, UniProt P06730). In words: Assay of binding ability to eukaryotic initiation factor (elF4E), Biacore T100. Conditions: cap analog to elF4E protein; running buffer pH 6.0 or 7.4; read-out: Binding constant (converted). How it is done:
Test method: Firstly, experimental samples, including the cap analog samples of Examples 1-7, compounds 10-13, 16, 17, 25, 31 and 34, and Comparative Example 1, were diluted with a running buffer (50 mM phosphate, 100 mM sodium chloride, and 0.01% vol/vol Tween 20, pH 6.0 or 7.4). The sample injection time was […], the sample injection flow rate was 20 L/min, and the dissociation time was […]. The residual samples were eluted with a regeneration buffer (10 mM HEPES, 150 mM NaCl, and 0.010% vol/vol Tween 20, pH 7.4) for 30 s at a flow rate of 30 μL/min. Finally, through analysis by Biacore T100 evaluation software (version 2.0.2), sensorgrams were generated and the binding constants were calculated.
(In general: In SPR one partner is held on a chip, and binding of the other changes the refractive index at the surface.)

T1 sequence (P00573 whole entry): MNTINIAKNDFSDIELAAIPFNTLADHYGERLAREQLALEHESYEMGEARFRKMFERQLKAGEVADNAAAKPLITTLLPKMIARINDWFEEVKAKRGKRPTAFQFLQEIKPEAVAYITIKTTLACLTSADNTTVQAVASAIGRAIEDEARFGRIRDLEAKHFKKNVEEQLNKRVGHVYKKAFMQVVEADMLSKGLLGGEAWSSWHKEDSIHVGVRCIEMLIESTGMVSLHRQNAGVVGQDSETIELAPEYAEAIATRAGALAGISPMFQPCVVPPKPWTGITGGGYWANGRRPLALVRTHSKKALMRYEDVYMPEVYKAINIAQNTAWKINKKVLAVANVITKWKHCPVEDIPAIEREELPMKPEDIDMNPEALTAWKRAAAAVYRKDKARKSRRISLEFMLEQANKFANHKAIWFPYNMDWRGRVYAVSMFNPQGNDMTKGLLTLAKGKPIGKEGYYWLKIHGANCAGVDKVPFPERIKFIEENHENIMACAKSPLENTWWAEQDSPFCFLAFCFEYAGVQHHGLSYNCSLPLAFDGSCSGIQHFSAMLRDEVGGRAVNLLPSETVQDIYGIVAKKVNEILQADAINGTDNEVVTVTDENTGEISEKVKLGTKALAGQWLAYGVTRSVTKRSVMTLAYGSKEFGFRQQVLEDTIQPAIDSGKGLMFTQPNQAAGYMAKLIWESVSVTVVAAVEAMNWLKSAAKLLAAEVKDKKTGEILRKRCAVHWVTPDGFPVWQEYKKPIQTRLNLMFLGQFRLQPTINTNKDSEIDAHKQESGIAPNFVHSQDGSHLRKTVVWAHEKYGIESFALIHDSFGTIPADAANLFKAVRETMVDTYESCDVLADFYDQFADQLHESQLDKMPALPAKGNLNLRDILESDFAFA
Chain of eukaryotic initiation factor (elF4E) (P06730 whole entry): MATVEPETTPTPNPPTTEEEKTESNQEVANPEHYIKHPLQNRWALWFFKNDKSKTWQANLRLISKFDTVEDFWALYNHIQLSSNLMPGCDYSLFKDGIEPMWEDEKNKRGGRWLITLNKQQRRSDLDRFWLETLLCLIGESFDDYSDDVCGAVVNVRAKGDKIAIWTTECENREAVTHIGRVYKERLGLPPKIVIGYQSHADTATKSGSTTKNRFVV

With `COCCOC1C(O)[C@H](n2c[n+](C)c3c(=O)[nH]c(N)nc32)O[C@@H]1/C=C/P(=O)(O)OP(=O)(O)OP(=O)(O)OC[C@H]1O[C@@H](n2cnc3c(N)ncnc32)C(OC)C1OP(=O)(O)OC[C@H]1O[C@@H](n2cnc3c(=O)[nH]c(N)nc32)C(O)C1O` (stereo partly drawn) [Compound 10], at T7 RNA polymerase [1], the Yield amounted to 124 µg. This molecule displayed a Capping rate at T7 RNA polymerase [2] of 96.4%. Also, the Kd in experiment [3] is 218 nM.

As to `COCC1C(O)[C@H](n2c[n+](C)c3c(=O)[nH]c(N)nc32)O[C@@H]1/C=C/P(=O)(O)OP(=O)(O)OP(=O)(O)OC[C@H]1O[C@@H](n2cnc3c(N)ncnc32)C(OC)C1OP(=O)(O)OC[C@H]1O[C@@H](n2cnc3c(=O)[nH]c(N)nc32)C(O)C1O` (stereo partly drawn) [Compound 11], the Yield on T7 RNA polymerase [1] worked out at 116 µg. For the same molecule, the Capping rate at T7 RNA polymerase [2] was determined as 95.7%. Also, the Kd in experiment [3] is 246 nM.

At T7 RNA polymerase [1], `COC1C(OP(=O)(O)OC[C@H]2O[C@@H](n3cnc4c(=O)[nH]c(N)nc43)C(O)C2O)[C@@H](COP(=O)(O)OP(=O)(O)OP(=O)(O)/C=C/[C@H]2O[C@@H](n3c[n+](C)c4c(=O)[nH]c(N)nc43)C(O)C2CNC(C)=O)O[C@H]1n1cnc2c(N)ncnc21` (stereo partly drawn) [Compound 12] displayed a Yield of 123 µg. In addition, the Capping rate on T7 RNA polymerase [2] was 96.6%. Also, in experiment [3], the Kd was 214 nM.

At T7 RNA polymerase [1], `COC1C(OP(=O)(O)OC[C@H]2O[C@@H](n3cnc4c(=O)[nH]c(N)nc43)C(O)C2O)[C@@H](COP(=O)(O)OP(=O)(O)OP(=O)(O)/C=C/[C@H]2O[C@@H](n3c[n+](C)c4c(=O)[nH]c(N)nc43)CC2OC)O[C@H]1n1cnc2c(N)ncnc21` (stereo partly drawn) [Compound 13] had a Yield of 112 µg. Moreover, at T7 RNA polymerase [2], the Capping rate is 95.4%. Also, in experiment [3], the Kd was 265 nM.

Take `COC1C(OP(=O)(O)OC[C@H]2O[C@@H](n3cnc4c(=O)[nH]c(N)nc43)C(O)C2O)[C@@H](COP(=O)(O)OP(=O)(O)OP(=O)(O)/C=C/[C@H]2O[C@@H](n3c[n+](C)c4c(=O)[nH]c(N)nc43)C(F)C2O)O[C@H]1n1cnc2c(N)ncnc21` (stereo partly drawn) [Compound 16]: on T7 RNA polymerase [1], the Yield is 114 µg. The same molecule showed a Capping rate at T7 RNA polymerase [2] of 95.8%. Also, in experiment [3], the Kd is 269 nM.

Take `COC1C(OP(=O)(O)OC[C@H]2O[C@@H](n3ccc(=O)[nH]c3=O)C(O)C2O)[C@@H](COP(=O)(O)OP(=O)(O)OP(=O)(O)/C=C/[C@H]2O[C@@H](n3c[n+](C)c4c(=O)[nH]c(N)nc43)C(O)C2CNC(C)=O)O[C@H]1n1cnc2c(N)ncnc21` (stereo partly drawn) [Compound 17]: the Yield at T7 RNA polymerase [1] worked out at 122 µg. Besides, the Capping rate at T7 RNA polymerase [2] came out at 96.2%. In experiment [3], the Kd was 222 nM.

Turning to `COC1C(OP(=O)(O)OC[C@H]2O[C@@H](n3cnc4c(=O)[nH]c(N)nc43)C(O)C2O)[C@@H](/C=C\P(=O)(O)OP(=O)(O)OP(=O)(O)OC[C@H]2O[C@@H](n3c[n+](C)c4c(=O)[nH]c(N)nc43)C(O)C2CNC(C)=O)O[C@H]1n1cnc2c(N)ncnc21` (stereo partly drawn) [Compound 25], at T7 RNA polymerase [1], the Yield is 120 µg. For the same molecule, the Capping rate on T7 RNA polymerase [2] is 96.1%. Besides, in experiment [3], the Kd is 224 nM.

For `COC1C(OP(=O)(O)OC[C@H]2O[C@@H](n3cnc4c(=O)[nH]c(N)nc43)C(O)C2O)[C@@H](COP(=O)(O)OP(=O)(O)OP(=O)(O)/C=C/[C@H]2O[C@@H](n3c[n+](C)c4c(=O)[nH]c(N)nc43)C(O)C2CN(C)C(C)=O)O[C@H]1n1cnc2c(N)ncnc21` (stereo partly drawn) [Compound 31], the Yield at T7 RNA polymerase [1] amounted to 115 µg. At T7 RNA polymerase [2], this molecule yielded a Capping rate of 95.7%. In addition, in experiment [3], the Kd is 239 nM.

Molecule `CCCC(=O)NCC1C(O)[C@H](n2c[n+](C)c3c(=O)[nH]c(N)nc32)O[C@@H]1/C=C/P(=O)(O)OP(=O)(O)OP(=O)(O)OC[C@H]1O[C@@H](n2cnc3c(N)ncnc32)C(OC)C1OP(=O)(O)OC[C@H]1O[C@@H](n2cnc3c(=O)[nH]c(N)nc32)C(O)C1O` (stereo partly drawn) [Compound 34] returned a Yield on T7 RNA polymerase [1] of 117 µg. For the same molecule, at T7 RNA polymerase [2], the Capping rate was determined as 95.9%. Moreover, the Kd in experiment [3] is 236 nM.

(Values after patent US20260176275A1, “VINYLPHOSPHONIC ACID-MODIFIED MRNA CAP ANALOG, METHOD FOR PREPARING SAME, AND USE THEREOF” (Jiangsu Synthgene Biotechnology Co., Ltd., priority 2022, published 2026).)
